Assay: xn = mol fraction of the nth substance listed
Settings: 101 kPa, Liquid; for speed of sound: Pulse-echo method; for mass density: Vibrating tube method

ClC(Cl)(Cl)Br [bromotrichloromethane] + CCCCCCC
Settings | mass density, 293.15 K [kg/m3] | mass density, 298.15 K [kg/m3] | mass density, 303.15 K [kg/m3] | mass density, 308.15 K [kg/m3] | mass density, 313.15 K [kg/m3] | speed of sound, 293.15 K [m/s] | speed of sound, 298.15 K [m/s] | speed of sound, 303.15 K [m/s] | speed of sound, 308.15 K [m/s] | speed of sound, 313.15 K [m/s]
x1 = 0.0527 | 731.54 | 727.03 | 722.5 | 717.94 | 713.35 | 1126.6 | 1105.8 | 1085.1 | 1064.5 | 1044
x1 = 0.1116 | 786.88 | 782.07 | 777.25 | 772.39 | 767.5 | 1100.3 | 1080.2 | 1060.4 | 1040.5 | 1020.7
x1 = 0.152 | 826.09 | 821.09 | 816.04 | 810.96 | 805.84 | 1083.8 | 1064.4 | 1044.9 | 1025.3 | 1005.8
x1 = 0.2038 | 878.08 | 872.78 | 867.43 | 862.07 | 856.67 | 1064.1 | 1045.2 | 1026 | 1007 | 988.3
x1 = 0.2512 | 927.29 | 921.75 | 916.16 | 910.53 | 904.88 | 1047.4 | 1028.9 | 1010.4 | 992 | 973.6
x1 = 0.2988 | 978.53 | 972.69 | 966.84 | 960.93 | 955.01 | 1031.9 | 1013.7 | 995.8 | 977.7 | 959.8
x1 = 0.3556 | 1041.97 | 1035.81 | 1029.61 | 1023.38 | 1017.12 | 1015 | 997.3 | 979.7 | 962.2 | 944.8
x1 = 0.4027 | 1096.65 | 1090.21 | 1083.75 | 1077.23 | 1070.68 | 1001.9 | 984.7 | 967.5 | 950.4 | 933.3
x1 = 0.4603 | 1166.3 | 1159.5 | 1152.66 | 1145.8 | 1138.9 | 987.5 | 970.6 | 953.9 | 937.2 | 920.7
x1 = 0.4989 | 1214.82 | 1207.8 | 1200.71 | 1193.57 | 1186.41 | 978.4 | 962 | 945.5 | 929.2 | 912.9
x1 = 0.5537 | 1286.16 | 1278.76 | 1271.34 | 1263.88 | 1256.37 | 966.7 | 950.6 | 934.7 | 918.8 | 902.9
x1 = 0.5961 | 1343.68 | 1336 | 1328.29 | 1320.53 | 1312.74 | 958.4 | 942.8 | 927.1 | 911.3 | 895.9
x1 = 0.6562 | 1428.79 | 1420.68 | 1412.54 | 1404.37 | 1396.16 | 948 | 932.8 | 917.4 | 902.2 | 887.1
x1 = 0.7088 | 1506.86 | 1498.38 | 1489.86 | 1481.3 | 1472.71 | 940.1 | 925.2 | 910.3 | 895.4 | 880.6
x1 = 0.7486 | 1568.29 | 1559.53 | 1550.71 | 1541.85 | 1532.96 | 934.8 | 920 | 905.3 | 890.7 | 876.2
x1 = 0.8001 | 1651.09 | 1641.91 | 1632.7 | 1623.44 | 1614.16 | 929 | 914.5 | 900.1 | 885.8 | 871.5
x1 = 0.8456 | 1727.53 | 1717.98 | 1708.38 | 1698.77 | 1689.12 | 924.6 | 910.4 | 896.2 | 882.2 | 868.2
x1 = 0.899 | 1821.57 | 1811.56 | 1801.52 | 1791.47 | 1781.35 | 920.6 | 906.7 | 892.8 | 879 | 865.3
x1 = 0.9521 | 1919.55 | 1909.09 | 1898.58 | 1888.06 | 1877.49 | 918 | 904.4 | 890.7 | 877.2 | 863.7
x1 = 1 | 2013.06 | 2002.14 | 1991.2 | 1980.24 | 1969.25 | 917.1 | 903.6 | 890.2 | 876.8 | 863.6

ClC(Cl)(Cl)Br [bromotrichloromethane] + BrCBr
Settings | mass density, 293.15 K [kg/m3] | mass density, 298.15 K [kg/m3] | mass density, 303.15 K [kg/m3] | mass density, 308.15 K [kg/m3] | mass density, 313.15 K [kg/m3] | speed of sound, 293.15 K [m/s] | speed of sound, 298.15 K [m/s] | speed of sound, 303.15 K [m/s] | speed of sound, 308.15 K [m/s] | speed of sound, 313.15 K [m/s]
x1 = 0.0506 | 2455.57 | 2442.67 | 2429.69 | 2416.74 | 2403.73 | 957 | 944.4 | 931.7 | 919.1 | 906.4
x1 = 0.0993 | 2424.17 | 2411.4 | 2398.59 | 2385.75 | 2372.87 | 953 | 940.3 | 927.6 | 914.8 | 902.2
x1 = 0.1491 | 2392.98 | 2380.34 | 2367.61 | 2354.94 | 2342.21 | 948.9 | 936.2 | 923.4 | 910.7 | 898.1
x1 = 0.1991 | 2363.17 | 2350.66 | 2338.13 | 2325.48 | 2312.93 | 945.3 | 932.6 | 919.8 | 907.1 | 894.4
x1 = 0.2473 | 2335.59 | 2323.21 | 2310.8 | 2298.33 | 2285.84 | 942.1 | 929.3 | 916.5 | 903.7 | 891
x1 = 0.2986 | 2307.34 | 2295.08 | 2282.77 | 2270.45 | 2258.08 | 939.1 | 926.2 | 913.2 | 900.4 | 887.7
x1 = 0.3465 | 2281.89 | 2269.75 | 2257.58 | 2245.37 | 2233.11 | 936.3 | 923.3 | 910.5 | 897.6 | 884.8
x1 = 0.3979 | 2255.64 | 2243.64 | 2231.57 | 2219.48 | 2207.34 | 933.6 | 920.7 | 907.7 | 894.8 | 882
x1 = 0.4468 | 2231.41 | 2219.49 | 2207.52 | 2195.5 | 2183.5 | 931.3 | 918.3 | 905.3 | 892.4 | 879.5
x1 = 0.4967 | 2207.74 | 2195.91 | 2184.02 | 2172.16 | 2160.25 | 929.1 | 916.1 | 903.1 | 890.1 | 877.1
x1 = 0.5462 | 2185.38 | 2173.66 | 2161.9 | 2150.12 | 2138.31 | 927.2 | 914.1 | 901.1 | 888 | 875.1
x1 = 0.5975 | 2162.89 | 2151.29 | 2139.5 | 2128 | 2116.3 | 925.3 | 912.2 | 899.1 | 886.1 | 873.1
x1 = 0.6479 | 2141.49 | 2130.01 | 2118.46 | 2106.9 | 2095.25 | 923.7 | 910.6 | 897.4 | 884.4 | 871.4
x1 = 0.6947 | 2122.35 | 2110.96 | 2099.49 | 2087.96 | 2076.47 | 922.4 | 909.2 | 896 | 882.8 | 869.9
x1 = 0.7469 | 2101.9 | 2090.59 | 2079.21 | 2067.83 | 2056.41 | 921 | 907.7 | 894.5 | 881.4 | 868.4
x1 = 0.7959 | 2083.33 | 2072.08 | 2060.79 | 2049.47 | 2038.17 | 919.9 | 906.6 | 893.4 | 880.2 | 867.1
x1 = 0.8494 | 2063.55 | 2052.39 | 2041.21 | 2030.02 | 2018.79 | 918.8 | 905.5 | 892.2 | 879 | 865.9
x1 = 0.898 | 2046.2 | 2035.13 | 2024.04 | 2012.93 | 2001.78 | 918 | 904.6 | 891.3 | 878.1 | 865
x1 = 0.9469 | 2029.71 | 2018.65 | 2007.69 | 1996.65 | 1985.57 | 917.4 | 904 | 890.6 | 877.3 | 864.1
x1 = 1 | 2013.06 | 2002.14 | 1991.2 | 1980.24 | 1969.25 | 917.1 | 903.6 | 890.2 | 876.8 | 863.6
